Earlier results on two compounds are cited in patent US20120015404A1, “GENE CLUSTER FOR THU[…]” (HUAZHONG AGRICULTURAL UNIVERSITY, priority 2009, published 2012).

Molecules are shown by their SMILES.

Data set [1] concerns larvae of housefly. As to conditions: larvae of housefly take in thuringiensin.
Data set [2] has as its system Anastrepha ludens. As to conditions: third stage larvae.
For data set [3] the following is noted: purified thuringiensin.
Data set [4] relates to A. serpentine. To be noted: third stage larvae.
In data set [5] the test system is Aedes aegypti.
In data set [6] the test system is Plutella maculipennis.
For data set [7], the system named is larvae of Galleria mellonella.
The test system of data set [8] is Pieris brassicae.
Data set [9] deals with A. obliqua. As to conditions: third stage larvae.
The subject of data set [10] is Phaedon cochleariae.
Data set [11] relates to Helicoverpa armigera.
The mark [12] stands for this setting: low concentration, Helicoverpa armigera.

In the case of `Nc1ncnc2c1ncn2[C@@H]1O[C@H](CO[C@H]2[C@H](O)[C@@H](O)[C@@H](O[C@@H](C(=O)O)[C@H](O)[C@H](OP(=O)(O)O)[C@H](O)C(=O)O)O[C@@H]2CO)[C@@H](O)[C@H]1O` [thuringiensin], the half lethal dose in [1] was 0.5 µg/mL; in [7] (larvae of Galleria mellonella, injected), 0.005 µg/g. Moreover, the figures for the LC50 in data set [2], in data set [4] and in data set [9] were 0.641 μg/cm^2, 0.408 μg/cm^2 and 0.512 μg/cm^2, respectively. Also, the mutagenicity result in [3] was “no mutagenicity”. In addition, in data set [5], the “toxicity compared with E605” value is listed as “less than E605”. The “activity compared with E605” value in data set [6], in [8] and in data set [10] was “more than E605” in each case. Moreover, the “toxicity relative to DDT” value in data set [7] (injected larvae of Galleria mellonella, times of that of DDT) is 1000 times.
Turning to `Nc1ncnc2c1ncn2[C@@H]1O[C@H](CO[C@H]2[C@H](O)[C@@H](O)[C@@H](O[C@@H](C(=O)O)[C@H](O)[C@H](OP(=O)(O)O)[C@H](O)C(=O)O)O[C@@H]2CO)[C@@H](O)[C@H]1O` [thuringiensin A], in data set [11] (setting [12]), the acute lethal effect entry is “no acute lethal effect”; the “effect on growth and development” value is listed as “unrecoverable inhibiting effect”. For the same compound, in data set [11] (lowest testing concentration, 12 days), the “weight of the neonate larvae” value is “no apparent increase”.
